Results reported in ChEMBL document CHEMBL6120939, “STATs, promising targets for the treatment of autoimmune and inflammatory diseases” (Eur J Med Chem, 2024).
pIC50: −log10 of the molar value. Values belong to the molecule of their own block, whether it stands above or below them.

Tests used:
[1] = molecular target: Signal transducer and activator of transcription 3 (Homo sapiens, UniProt P40763); assay: Inhibition of STAT3 phosphorylation in human HepG2 cells by immuno-fluorescence analysis; format: cell-based
Signal transducer and activator of transcription 3, sequence (P40763 whole entry): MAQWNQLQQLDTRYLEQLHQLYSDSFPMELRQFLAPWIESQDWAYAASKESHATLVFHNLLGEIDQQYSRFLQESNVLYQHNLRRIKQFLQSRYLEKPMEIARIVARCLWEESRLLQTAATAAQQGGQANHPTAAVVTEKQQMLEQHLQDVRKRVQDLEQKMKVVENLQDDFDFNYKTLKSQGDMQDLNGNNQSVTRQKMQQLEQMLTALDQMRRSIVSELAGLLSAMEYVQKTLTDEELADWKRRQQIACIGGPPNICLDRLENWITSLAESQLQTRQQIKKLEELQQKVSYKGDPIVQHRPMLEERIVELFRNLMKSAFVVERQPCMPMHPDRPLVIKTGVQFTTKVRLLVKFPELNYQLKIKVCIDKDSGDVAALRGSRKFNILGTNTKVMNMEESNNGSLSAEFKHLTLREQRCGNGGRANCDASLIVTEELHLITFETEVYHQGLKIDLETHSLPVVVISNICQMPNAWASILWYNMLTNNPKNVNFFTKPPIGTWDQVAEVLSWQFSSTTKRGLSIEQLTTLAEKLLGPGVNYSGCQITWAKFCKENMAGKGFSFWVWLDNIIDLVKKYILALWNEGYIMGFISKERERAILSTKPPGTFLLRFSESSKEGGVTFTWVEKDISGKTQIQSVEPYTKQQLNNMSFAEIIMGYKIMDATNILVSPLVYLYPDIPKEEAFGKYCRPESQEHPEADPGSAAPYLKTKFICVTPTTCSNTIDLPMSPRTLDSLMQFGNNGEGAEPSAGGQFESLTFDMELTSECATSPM

Mus musculus [2] = assay: Anti-asthmatic activity in OVA-induced ip dosed female BALB/c mouse model assessed as reduction in pulmonary IL-13 level administered for 30 min measured after 21 days by ELISA; format: functional, organism-based
[3] = Inhibition of C57BL/6 mouse Th17 cell differentiation from CD4+ T cells assessed as reduction in IL-17a mRNA expression incubated for 96 hrs by qPCR analysis; format: functional, cell-based; details: C57BL/6, Th17, 96 h
Rattus norvegicus = assay: Antiinflammatory activity against TNBS-induced colitis in Sprague-Dawley rat model assessed as reduction in colon TNFalpha level at 1 mg/kg, po administered for 5 days by ELISA; format: functional, organism-based; details: 120 h
Mus musculus [4] = assay: Anti-inflammatory activity against DSS-induced acute colitis C57BL/6J mouse model assessed as reduction in IL-1beta level in colon at 10 to 20 mg/kg, po measured for 7 days by ELISA analysis; format: functional, organism-based; details: 168 h

pIC50 [1]: 4.91
SMILES: CC1CC(=O)c2c(ccc3c2C(=O)c2cccc(O)c2C3=O)C1 (stereo not drawn)

pIC50 (Mus musculus [2]): 7.68
SMILES: NC(=O)c1cnc(NCCc2ccc(O)c(Cl)c2)nc1NCc1ccccc1

pIC50 [3]: 6.74
SMILES: NS(=O)(=O)c1cccc2c1C(=O)c1cccc(O)c1C2=O

pIC50 (Rattus norvegicus): 4.07
SMILES: Cc1ccc(S(=O)(=O)OCC(=O)Nc2ccc(C(=O)O)c(O)c2)cc1

pIC50 (Mus musculus [2]): 9.15
SMILES: NC(=O)c1cnc(Nc2ccc(N3CCOCC3)cc2)nc1NCc1c(F)ccc(F)c1F

SMILES: CN(C)C(=O)Oc1cccc2c1C(=O)c1cccc(S(N)(=O)=O)c1C2=O
pIC50 [3]: 6.66

pIC50 (Rattus norvegicus): 5.40
SMILES: COc1ccc(S(=O)(=O)Nc2cc(-c3c(O)ccc4ccccc34)c(O)c3ccccc23)cc1 [C-188-9]

pIC50 (Mus musculus [4]): 5.32
SMILES: Cc1cc(OCCCS(C)(=O)=O)cc(C)c1-c1cccc(COc2ccc3c(c2)OC[C@H]3CC(=O)O)c1 [FASIGLIFAM]
